From publication PMC3809587, “Structure and function of the Smoothened extracellular domain in vertebrate Hedgehog signaling” (eLife, 2013)

Key:
YFP-mSmo [1] = target: T1, YFP-mSmo (Mus musculus, UniProt P56726); experiment: Gli1 and Gli3R immunoblot in Smo−/−:YFP-mSmo cells; format: cell-based; conditions: SAG 100 nM, 20(S)-OHC 10 μM
T1 construct: Smo^−/− cells stably expressing full-length (FL) YFP-mSmo or ΔCRD-YFP-mSmo were treated with Shh, SAG (100 nM) or 20(S)-OHC (10 μM); expressed in transfected cells
Procedure: Cultured cells stably expressing YFP-mSmo, ΔCRD-YFP-mSmo, or ΔC-YFP-mSmo were scraped into ice-cold PBS containing SigmaFast Protease inhibitor cocktail (Sigma) and collected as a pellet by centrifugation (1000×g, 10 min, 4°C). Cells were lysed (1 hr, 4°C) by agitation in modified RIPA buffer (50 mM sodium-Tris pH 7.4, 150 mM sodium chloride, 2% NP-40, 0.5% deoxycholate, 0.1% sodium-dodecyl sulfate [SDS], 1 mM dithiothreitol and the SigmaFast Protease inhibitor cocktail). After clarification (20,000×g, 45 min, 4°C), the protein concentration of each lysate was measured using the bicinchoninic acid assay (BCA, Pierce/Thermo Scientific, Rockford, IL). Lysate aliquots containing equal amount of total protein were fractionated on an 8% SDS-PAGE gel and transferred to a nitrocellulose membrane for immunoblotting with anti-Gli1 antibody (#L42B10, 1:500; Cell Signaling, Denvers, MA), anti-GFP antibody (1:5000; Novus, Littleton, CO), anti-Gli3 antibody (AF3690 1:200; R&D, Minneapolis, MN) and anti-p38 antibody (ab31828, 1:2000; Abcam, Cambridge, MA). In Figures 1–4, vertical dashed black lines represent non-contiguous lanes from the same immunoblot juxtaposed for clarity.

YFP-mSmo [2] = target: T1, YFP-mSmo; experiment: 20(S)-OHC bead pull-down of YFP-mSmo from cell lysates; format: binding; conditions: 50 μM free 20(S)-OHC as competitor
Procedure: 293T cells transfected with constructs encoding mSmo variants were lysed in hypotonic SEAT buffer (250 mM sucrose, 1 mM EDTA, 10 mM acetic acid, 10 mM triethanolamine and the SigmaFast EDTA-Free protease inhibitor cocktail). After the removal of nuclei by centrifugation (900×g, 5 min, 4°C), membranes were pelleted by ultracentrifugation (95,000×g, 30 min) and solubilized in a n-dodecyl-β-D-maltopyranoside (DDM) extraction buffer (50 mM Tris pH 7.4, 150 mM NaCl, 10% vol/vol glycerol, 0.5% wt/vol DDM and the SigmaFast EDTA-Free protease inhibitor cocktail) for 2 hr at 4°C, followed by removal of insoluble material by ultracentrifugation (100,000×g, 30 min). This DDM membrane extract was incubated with 20(S)-OHC beads for 12 hr at 4°C to allow binding to equilibrium. After extensive washing, proteins captured on the beads were eluted with reducing SDS sample buffer. The presence of YFP-mSmo in these eluates was determined by quantitative immunoblotting with an anti-YFP antibody (NB600-308, 1:5000; Novus) and infrared imaging (Li-Cor Odyssey).

ΔCRD-YFP-mSmo = target: T2, ΔCRD-YFP-mSmo (Mus musculus, UniProt P56726, DEL68-184); experiment: Hh signaling by ΔCRD-YFP-mSmo in Smo−/− cells (immunoblot, Hh reporter); format: cell-based
T2 construct: All mSmo mutants were made using Quickchange or PCR methods in the context of a previously described construct encoding full-length mouse Smo (UniProt P56726); expressed in transfected cells

Zebrafish embryos = experiment: Zebrafish embryo treatment: eng2a:GFP reporter and ptch2 in situ hybridization; format: in vivo; conditions: 30hpf embryos, 20(S)-OHC 50 µM; for eng2a:GFP reporter expression: cyclopamine 40 µM
Procedure: Adult fishes were maintained on a 14-hr light/10-hr dark cycle at 28°C in the AVA (Singapore) certified IMCB Zebrafish Facility. Zebrafish strain used was Tg(eng2a:eGFP)^i233 ([Maurya et al., 2011]).
The embryos of Tg(eng2a:eGFP)^i233 were dechorinated using pronase (Roche) at one cell stage. […] Control embryos were kept in water containing the same amount of ethanol, used as the vehicle for the drugs. Standard in situ hybridization (ISH) was performed with anti-Dig alkaline phosphatase and chromogenic substrate NBT/BCIP as previously described ([Oxtoby and Jowett, 1993]). ptch2 (formerly ptc1) RNA probe was prepared from template as previously described ([Concordet et al., 1996]).

[3] = system: Drosophila melanogaster Smo (dSmo) and dSmo CRD; experiment: 20(S)-OHC bead binding of Drosophila Smo; conditions: bead-immobilized 20(S)-OHC
zSmo ectodomain = target: T3, zSmo ectodomain (Danio rerio, UniProt Q5RH73); experiment: Ligand affinity chromatography: zSmo ectodomain binding to 20(S)-OHC beads; design: species or system zebrafish
T3 construct: zSmo-ectodomain: a.a; 29–212), fused C-terminally with a with a hexa-histidine (His6) tag; His6 (C); made in house
T3 sequence (Q5RH73 29-212): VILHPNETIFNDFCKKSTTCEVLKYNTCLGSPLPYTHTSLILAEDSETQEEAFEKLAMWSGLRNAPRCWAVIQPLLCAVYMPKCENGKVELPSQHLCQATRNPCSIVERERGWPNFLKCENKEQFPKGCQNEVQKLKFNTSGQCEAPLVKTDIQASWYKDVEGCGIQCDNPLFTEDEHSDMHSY
Procedure: For ligand affinity chromatography with purified mSmo CRD-Fc or zSmo ectodomain, protein was diluted in 20 mM Tris pH 8.5, 150 mM NaCl, 0.3% octyl-glucoside prior to addition of competitors and 20(S)-OHC beads. After binding was allowed to proceed for 12 hr at 4°C, the resin was washed and captured protein was eluted as described above. The presence of mSmo CRD-Fc was measured by an anti-human HRP-coupled antibody (1:20,000) or anti-human IR800-coupled antibody (1:10,000; for all quantitation, detected by LiCor Odyssey). The presence of zSmo ectodomain protein was measured by colloidal Coomassie staining (GelCode Blue, Pierce/Thermo Scientific).
For Hh reporter assays, each point is reported as the mean ± standard deviation (SD) derived from triplicates. Each result in the paper was repeated at least three times with similar outcomes. Relative luciferase activity was calculated by dividing Gli luciferase by Renilla luciferase luminescence. Fold-change in reporter activity was calculated by dividing each replicate by the mean reporter activity of the vehicle-treated control. Normalized (% of max) Hh reporter activity was calculated by setting the maximum value of a set to 100% and zero to 0% using the ‘normalize’ function of GraphPad Prism. […]

mSmo CRD-Fc = target: T4, mSmo CRD-Fc (Mus musculus, UniProt P56726); experiment: Ligand affinity chromatography: mSmo CRD-Fc binding to 20(S)-OHC beads; conditions: for inhibition of binding of mSmo CRD-Fc to 20(S)-OHC beads: free compound added as competitor
T4 construct: made in house; host or cells: 293F suspension cells (secreted)
T4 sequence (P56726 33-183): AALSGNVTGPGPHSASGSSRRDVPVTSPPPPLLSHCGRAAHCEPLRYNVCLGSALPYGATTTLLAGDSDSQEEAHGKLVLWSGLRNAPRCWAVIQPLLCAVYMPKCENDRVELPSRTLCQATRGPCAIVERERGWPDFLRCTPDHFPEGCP
Procedure: After binding was allowed to proceed for 12 hr at 4°C, the resin was washed and captured protein was eluted as described above. The presence of mSmo CRD-Fc was measured by an anti-human HRP-coupled antibody (1:20,000) or anti-human IR800-coupled antibody (1:10,000; for all quantitation, detected by LiCor Odyssey). The presence of zSmo ectodomain protein was measured by colloidal Coomassie staining (GelCode Blue, Pierce/Thermo Scientific). […]

[4] = system: endogenous mSmo in cilia of NIH 3T3 cells; experiment: Immunofluorescence of ciliary Smo accumulation; format: cell-based, mouse; conditions: NIH 3T3, 4 hr, presence of Shh
[5] = system: endogenous mSmo in cilia of NIH 3T3 cells; design: method as in Rohatgi et al., 2009; conditions: absence of Shh; ref Rohatgi et al., 2009; cited from earlier work
[6] = system: Hh reporter (8xGli-responsive promoter); conditions: ref Nachtergaele et al., 2012; cited from earlier work

T1 sequence (P56726 33-793): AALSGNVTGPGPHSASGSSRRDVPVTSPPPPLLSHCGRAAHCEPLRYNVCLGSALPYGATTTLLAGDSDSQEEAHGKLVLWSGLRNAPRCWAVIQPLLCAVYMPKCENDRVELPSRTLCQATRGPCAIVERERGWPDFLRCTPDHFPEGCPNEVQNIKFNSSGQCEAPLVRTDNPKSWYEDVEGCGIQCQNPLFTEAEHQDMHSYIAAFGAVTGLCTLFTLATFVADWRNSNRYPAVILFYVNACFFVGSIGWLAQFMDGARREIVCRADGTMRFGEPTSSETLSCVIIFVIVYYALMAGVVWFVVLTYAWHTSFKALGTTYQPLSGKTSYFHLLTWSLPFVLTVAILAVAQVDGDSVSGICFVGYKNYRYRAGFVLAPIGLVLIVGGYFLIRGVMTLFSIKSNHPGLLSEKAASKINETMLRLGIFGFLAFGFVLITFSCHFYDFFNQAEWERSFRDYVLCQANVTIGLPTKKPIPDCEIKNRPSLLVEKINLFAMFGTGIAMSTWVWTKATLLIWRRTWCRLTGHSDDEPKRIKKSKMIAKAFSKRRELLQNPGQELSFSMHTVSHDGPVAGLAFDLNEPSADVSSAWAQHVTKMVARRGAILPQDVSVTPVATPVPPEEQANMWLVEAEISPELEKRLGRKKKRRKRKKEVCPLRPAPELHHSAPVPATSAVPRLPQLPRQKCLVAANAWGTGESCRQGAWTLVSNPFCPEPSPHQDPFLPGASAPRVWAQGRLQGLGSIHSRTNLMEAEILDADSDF
T2 sequence (P56726 with tags, fused parts or gaps DEL68-184): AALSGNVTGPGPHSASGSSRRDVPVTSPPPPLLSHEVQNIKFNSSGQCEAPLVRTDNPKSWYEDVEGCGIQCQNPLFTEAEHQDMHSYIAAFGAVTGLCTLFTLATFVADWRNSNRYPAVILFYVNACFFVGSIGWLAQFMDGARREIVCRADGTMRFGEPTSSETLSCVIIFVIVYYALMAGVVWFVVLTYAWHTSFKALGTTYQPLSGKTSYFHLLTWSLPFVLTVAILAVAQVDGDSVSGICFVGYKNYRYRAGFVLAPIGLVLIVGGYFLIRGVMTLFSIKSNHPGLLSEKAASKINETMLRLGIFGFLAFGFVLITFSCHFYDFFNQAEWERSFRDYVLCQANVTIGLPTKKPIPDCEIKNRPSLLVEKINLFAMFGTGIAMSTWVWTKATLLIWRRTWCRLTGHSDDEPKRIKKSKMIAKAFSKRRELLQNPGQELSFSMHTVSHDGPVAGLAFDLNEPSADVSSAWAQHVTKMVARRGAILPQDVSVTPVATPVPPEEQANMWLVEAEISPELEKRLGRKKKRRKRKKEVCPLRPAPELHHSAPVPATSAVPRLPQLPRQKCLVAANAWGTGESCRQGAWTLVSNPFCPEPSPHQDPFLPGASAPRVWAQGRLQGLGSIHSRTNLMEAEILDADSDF

SMILES	Gli3R level (YFP-mSmo [1])	activation of Hh target gene Gli1 (YFP-mSmo [1])	competition of YFP-mSmo binding to 20(S)-OHC beads (YFP-mSmo [2])	response of ΔCRD-YFP-mSmo to agonist (Hh target genes, Gli3R) (ΔCRD-YFP-mSmo; SAG 100 nM, 20(S)-OHC 10 μM)	ptch2 expression by in situ hybridization (Zebrafish embryos)	eng2a:GFP reporter expression (Zebrafish embryos)	binding of dSmo and dSmo CRD to 20(S)-OHC beads [3]	Kd (zSmo ectodomain; fixed amount of protein, increasing amounts of bead-immobilized sterol, read-out: Kd, zSmo ectodomain-20(S)-OHC interaction)	inhibition of binding of zSmo ectodomain to 20(S)-OHC beads (zSmo ectodomain; free compound added as competitor)	Kd (mSmo CRD-Fc; fixed amount of protein, increasing amounts of bead-immobilized sterol, read-out: Kd, mSmo CRD-Fc-20(S)-OHC interaction)	inhibition of binding of mSmo CRD-Fc to 20(S)-OHC beads (mSmo CRD-Fc)	inhibition of SAG activated ΔCRD-YFP-mSmo (ΔCRD-YFP-mSmo; SAG 25 nM, cyclopamine 5 μM, Hh reporter)	Shh-induced Smo accumulation in cilia [4]	Smo accumulation in cilia, compound alone [5]	potency against Shh-activated Smo compared to 20(S)-OHC-activated Smo [6]
CC(C)CCC[C@](C)(O)[C@H]1CC[C@H]2[C@@H]3CC=C4C[C@@H](O)CC[C@]4(C)[C@H]3CC[C@@]21C [20(S)-OHC, 20(S)-hydroxycholesterol]	loss of the repressor form of Gli3 (Gli3R) was observed	could activate a Hh target gene, Gli1	Binding to beads was not seen	failed to activate Hh target genes or to extinguish Gli3R levels	modest expansion of the expression domain	significant increase in the number of GFP positive fast twitch muscles	failed to bind 20(S)-OHC beads	~170 nM	inhibited in a dose-responsive fashion	~180 nM	Binding could be inhibited	–	–	–	–
CC1=C2C[C@H]3[C@@H](CC=C4C[C@@H](O)CC[C@@]43C)[C@@H]2CC[C@]12O[C@@H]1C[C@H](C)CN[C@H]1[C@H]2C [cyclopamine]	–	–	–	–	–	suppressed expression of the reporter gene	–	–	–	–	blocked the interaction	remained susceptible to inhibition by cyclopamine	do not block Smo ciliary accumulation	can drive Smo accumulation in cilia even in the absence of Shh	much less potent
